Like-named read-outs stand apart in the source and are kept apart here.
Target: T1, F508delCFTR (Homo sapiens, UniProt P13569, DEL508-508)
T1 construct: expressed in transfected cells; host or cells: CFBE41o- human lung-derived epithelial cells (CFBE4lo-F508delCFTR-HRP), doxycycline-inducible
Assay: Cell Surface Expression-Horse Radish Peroxidase (CSE-HRP) Assay;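 for Maximum % activity (with co-corrector): co-corrector and positive control are both the same reference corrector at 2 µM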;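 for Maximum % activity (without co-corrector): percent of the 2 µM on-plate positive control corrector response above DMSO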
Type: cell-based
Settings: for Maximum % activity (with co-corrector) / Emax: maximum at any tested concentration, normalized to on-plate positive control; for Emax: read-out: Maximum % activity (without co-corrector)

[1] = CSE-HRP, test compound without co-corrector, read-out: EC50 (without co-corrector)
[2] = CSE-HRP, with co-corrector (2 μM of 3-[(2R,4R)-4-({[1-(2,2-difluoro-1,3-benzodioxol-5-yl)cyclopropyl]carbonyl}amino)-7-methoxy-3,4-dihydro-2H-chromen-2-yl]benzoic acid), read-out: EC50 (with co-corrector)
[3] = CSE-HRP, with co-corrector (2 μM)
[4] = test compound without co-corrector
[5] = test compound without co-corrector, read-out: EC50 (without co-corrector)
[6] = with co-corrector (2 μM of 3-[(2R,4R)-4-({[1-(2,2-difluoro-1,3-benzodioxol-5-yl)cyclopropyl]carbonyl}amino)-7-methoxy-3,4-dihydro-2H-chromen-2-yl]benzoic acid)
[7] = with co-corrector (2 μM of 3-[(2R,4R)-4-({[1-(2,2-difluoro-1,3-benzodioxol-5-yl)cyclopropyl]carbonyl}amino)-7-methoxy-3,4-dihydro-2H-chromen-2-yl]benzoic acid), read-out: EC50 (with co-corrector)

T1 sequence (P13569 with tags, fused parts or gaps DEL508-508): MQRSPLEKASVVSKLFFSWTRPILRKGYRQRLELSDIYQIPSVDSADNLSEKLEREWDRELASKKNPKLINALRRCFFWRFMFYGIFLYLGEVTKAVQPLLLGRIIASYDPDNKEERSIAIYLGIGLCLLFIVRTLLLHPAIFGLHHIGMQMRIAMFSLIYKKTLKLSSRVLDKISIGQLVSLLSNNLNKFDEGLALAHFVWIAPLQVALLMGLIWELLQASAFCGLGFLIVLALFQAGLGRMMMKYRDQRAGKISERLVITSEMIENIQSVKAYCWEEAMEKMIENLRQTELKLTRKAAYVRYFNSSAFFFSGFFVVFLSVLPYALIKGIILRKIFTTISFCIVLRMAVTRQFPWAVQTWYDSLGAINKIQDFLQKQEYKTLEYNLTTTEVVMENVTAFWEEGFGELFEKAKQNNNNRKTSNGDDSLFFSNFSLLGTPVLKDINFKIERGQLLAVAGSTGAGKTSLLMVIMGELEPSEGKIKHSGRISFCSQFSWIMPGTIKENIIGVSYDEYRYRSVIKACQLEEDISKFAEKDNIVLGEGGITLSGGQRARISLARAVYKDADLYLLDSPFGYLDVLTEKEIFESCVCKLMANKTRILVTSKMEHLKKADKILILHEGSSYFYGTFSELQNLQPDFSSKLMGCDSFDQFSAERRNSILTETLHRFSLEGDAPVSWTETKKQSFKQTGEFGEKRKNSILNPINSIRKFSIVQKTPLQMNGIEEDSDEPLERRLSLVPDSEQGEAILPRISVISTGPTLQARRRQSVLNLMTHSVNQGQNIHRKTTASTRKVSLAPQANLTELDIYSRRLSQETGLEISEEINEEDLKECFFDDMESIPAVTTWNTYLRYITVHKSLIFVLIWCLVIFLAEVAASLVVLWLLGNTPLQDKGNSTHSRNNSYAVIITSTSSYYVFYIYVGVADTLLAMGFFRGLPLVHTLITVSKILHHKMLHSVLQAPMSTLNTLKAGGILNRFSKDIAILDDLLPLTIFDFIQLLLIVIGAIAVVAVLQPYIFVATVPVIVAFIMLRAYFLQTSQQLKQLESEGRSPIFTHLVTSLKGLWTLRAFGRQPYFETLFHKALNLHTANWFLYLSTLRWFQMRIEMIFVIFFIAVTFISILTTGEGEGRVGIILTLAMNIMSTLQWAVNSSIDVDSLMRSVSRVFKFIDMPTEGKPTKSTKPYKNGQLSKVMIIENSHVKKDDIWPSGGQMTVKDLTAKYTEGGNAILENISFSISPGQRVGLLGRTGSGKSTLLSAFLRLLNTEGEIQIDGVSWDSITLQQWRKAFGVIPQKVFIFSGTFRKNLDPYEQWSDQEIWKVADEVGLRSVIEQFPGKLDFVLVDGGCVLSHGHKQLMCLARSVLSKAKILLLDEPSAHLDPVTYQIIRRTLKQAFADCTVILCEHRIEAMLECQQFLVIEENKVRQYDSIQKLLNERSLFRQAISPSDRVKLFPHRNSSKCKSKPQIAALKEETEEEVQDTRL

EC50 [1] | EC50 [2] | Maximum % activity (with co-corrector) [3] | Emax (CSE-HRP, without co-corrector) | Emax [4] | EC50 [5] | Maximum % activity (with co-corrector) [6] | EC50 [7] | Maximum % activity (with co-corrector) (with co-corrector (2 μM)) | Emax (without co-corrector) | Compound
1 to 10 µM | 1 to 10 µM | +++ (≥350) | 100 to 200% |  |  |  |  |  |  | COc1ccc(C(C)(C)C)cc1CN[C@H]1[C@H](C(C)(C)C)[C@@H](C(=O)O)N(C(=O)C2CCC(C#N)CC2)[C@H]1c1ccccc1 (some centres unmarked) [II-175]
 |  |  |  | > 200% | 1 to 10 µM | +++ (≥350) | < 1 µM |  |  | COc1ccc(C(C)(C)C)cc1CN[C@H]1[C@H](C(C)(C)C)[C@@H](C(=O)O)N(C(=O)c2ccc(OC3CCOCC3)cc2)[C@H]1c1cccnc1N(C)C [II-465]
 |  |  |  |  | 1 to 10 µM |  | 1 to 10 µM | +++ (≥350) | < 100% | CO[C@@H]1CCC[C@@H](C(=O)N2[C@H](c3ccccc3)[C@H](Nc3cc(C(F)(F)F)cc(C)n3)[C@@H](C(C)(C)C)[C@@H]2C(=O)O)C1 (racemic) [Example I-31]
1 to 10 µM | 1 to 10 µM | +++ (≥350) | > 200% |  |  |  |  |  |  | COc1ccc(C(C)(C)C)cc1CN[C@H]1[C@H](C(C)(C)C)[C@@H](C(=O)O)N(C(=O)C2CC2(C)C)[C@H]1c1ccccc1 (some centres unmarked) [II-309]
 |  |  |  | > 200% | < 1 µM |  | < 1 µM | +++ (≥350) |  | COc1ccc(C(C)(C)C)cc1CN[C@H]1[C@H](C(C)(C)C)[C@@H](C(=O)O)N(C(=O)C2CCc3ccccc3C2)[C@H]1c1ccccc1 (some centres unmarked) [III-191]
 |  |  |  | > 200% | 1 to 10 µM | +++ (≥350) | < 1 µM |  |  | COc1ncc(C(F)(F)F)cc1CN[C@H]1[C@H](C(C)(C)C)[C@@H](C(=O)O)N(C(=O)C2CCOCC2)[C@H]1c1ccccc1C(C)C [II-591]
 |  |  |  |  | 1 to 10 µM |  | 1 to 10 µM | ++ (≥150 and <350) | < 100% | Cc1cc(C(F)(F)F)cc(N[C@H]2[C@H](C(C)(C)C)[C@@H](C(=O)O)N(C(=O)OC(C)C)[C@H]2c2ccccc2C(C)C)n1 [Example 82, (2S,3S,4S,5S)-3-tert-butyl-4-{[6-methyl-4-(trifluoromethyl)pyridin-2-yl]amino}-1-{[(propan-2-yl)oxy]carbonyl}-5-[2-(propan-2-yl)phenyl]pyrrolidine-2-carboxylic acid]
 |  |  |  |  | 1 to 10 µM |  | 1 to 10 µM | +++ (≥350) | 100 to 200% | CCc1c(C(=O)N2[C@H](C(=O)O)[C@@H](C(C)(C)C)[C@H](NCc3cc(C(C)(C)C)ccc3OC)[C@@H]2c2ccccc2)cnn1-c1ccc(OC)nn1 [Example I-144]
 |  |  |  | < 100% | > 10 µM | ++ (≥150 and <350) | < 1 µM |  |  | Cc1cc(C(F)(F)F)cc(N[C@@H]2[C@@H](C(C)(C)C)[C@H](C(=O)NS(=O)(=O)C3CC3)N(C(=O)C3CCCCC3)[C@@H]2c2ccccc2)n1 (racemic) [III-52]
< 1 µM | < 1 µM | +++ (≥350) | > 200% |  |  |  |  |  |  | CC(C)c1ccccc1[C@H]1[C@@H](NCc2cccc3c2OC(C)(C)C3)[C@H](C(C)(C)C)[C@@H](C(=O)O)N1C(=O)[C@@H]1CCCCO1 [Example I-306]
1 to 10 µM | 1 to 10 µM | ++ (≥150 and <350) | < 100% |  |  |  |  |  |  | COc1ccc(C(C)(C)C)cc1CN[C@H]1[C@H](C(C)(C)C)[C@@H](C(=O)O)N(C(=O)c2cc(C)nc(C)c2)[C@H]1c1ccccc1 [II-197]
 |  |  |  |  | 1 to 10 µM |  | 1 to 10 µM | +++ (≥350) | 100 to 200% | COc1ccc(C(C)(C)C)cc1CN[C@H]1[C@H](C(C)(C)C)[C@@H](C(=O)O)N(C(=O)[C@H](C)c2ccccc2)[C@H]1c1cccnc1OC [Example I-239]
 |  |  |  |  | 1 to 10 µM |  | 1 to 10 µM | ++ (≥150 and <350) | < 100% | COc1ncc(C2CCC2)cc1CN[C@H]1[C@H](C(C)(C)C)[C@@H](C(=O)O)N(C(=O)C2COc3ccccc3O2)[C@H]1c1ccccc1 (relative stereo) [Example I-205]
< 1 µM | < 1 µM | +++ (≥350) | > 200% |  |  |  |  |  |  | COc1ccc(-c2ccc(C)cc2)cc1CN[C@H]1[C@H](C(C)(C)C)[C@@H](C(=O)O)N(C(=O)C2CCCCC2)[C@H]1c1ccccc1 [II-249]
 |  |  |  |  | > 10 µM |  | 1 to 10 µM | ++ (≥150 and <350) | < 100% | CO[C@H](C(=O)N1[C@H](c2ccccc2)[C@H](Nc2cc(C(F)(F)F)cc(C)n2)[C@@H](C(C)(C)C)[C@@H]1C(=O)O)c1ccccc1 (relative stereo) [Example I-33]
1 to 10 µM | 1 to 10 µM | +++ (≥350) | 100 to 200% |  |  |  |  |  |  | COc1cc(C(F)(F)F)ccc1CN[C@H]1[C@H](C(C)(C)C)[C@@H](C(=O)O)N(C(=O)C2OC[C@@H]3CCC[C@H]23)[C@H]1c1ccccc1 (some centres unmarked) [II-241]
1 to 10 µM | 1 to 10 µM | ++ (≥150 and <350) | 100 to 200% |  |  |  |  |  |  | Cc1ccc(CN[C@H]2[C@H](C(C)(C)C)[C@@H](C(=O)O)N(C(=O)C3CCCCC3)[C@H]2c2ccccc2)c(C)c1 [II-131]
1 to 10 µM | 1 to 10 µM | +++ (≥350) | < 100% |  |  |  |  |  |  | Cc1ccc(C)c(CN[C@H]2[C@H](C(C)(C)C)[C@@H](C(=O)O)N(C(=O)C3CCCCC3)[C@H]2c2ccccc2)c1 [II-117]
 |  |  |  | < 100% | 1 to 10 µM | ++ (≥150 and <350) | 1 to 10 µM |  |  | COc1cccc([C@@H]2[C@H](Nc3cc(C(F)(F)F)cc(C)n3)[C@@H](C(C)(C)C)[C@H](C(=O)O)N2C(=O)C2C3COCC32)n1 (mixture of isomers) [III-62]
 |  |  |  | < 100% | 1 to 10 µM | ++ (≥150 and <350) | 1 to 10 µM |  |  | Cc1cc(C(F)(F)F)cc(N[C@@H]2[C@@H](C(C)(C)C)[C@H](C(=O)O)N(C(=O)C3CCCCC3)[C@@H]2c2cccnc2N(C)C)n1 (racemic) [III-46]
 |  |  |  | 100 to 200% | 1 to 10 µM | +++ (≥350) | 1 to 10 µM |  |  | COc1ncc(C2CCC2)cc1CN[C@H]1[C@H](C(C)(C)C)[C@@H](C(=O)O)N(C(=O)[C@@H]2CCCO2)[C@H]1c1cccnc1C1CC1 [II-588]
 |  |  |  |  | 1 to 10 µM |  | 1 to 10 µM | +++ (≥350) | 100 to 200% | COc1ccc(C2(C#N)CCC2)cc1CN[C@H]1[C@H](C(C)(C)C)[C@@H](C(=O)O)N(C(=O)C2CCCCC2)[C@H]1c1ccccc1 [Example I-155]
 |  |  |  | < 100% | 1 to 10 µM | ++ (≥150 and <350) |  |  |  | COc1ccc(C(C)(C)C)cc1CN[C@H]1[C@H](C(C)(C)C)[C@@H](C(=O)O)N(C(=O)C2CCc3ccccc3O2)[C@H]1c1cccnc1N(C)C (single isomer, unassigned) [II-438]
 |  |  |  | 100 to 200% | 1 to 10 µM |  | 1 to 10 µM | +++ (≥350) |  | COc1ccc(C(C)(C)C)cc1CN[C@H]1[C@H](C(C)(C)C)[C@@H](C(=O)O)N(C(=O)c2cc(F)cc3c2OCOC3)[C@H]1c1ccccc1 [III-178]
 |  |  |  | < 100% | > 10 µM |  | 1 to 10 µM | + (<150) |  | COc1ccc(C(C)(C)C)cc1CN[C@H]1[C@H](C(C)(C)C)[C@@H](C(=O)O)N(C(=O)N(C(C)C)C(C)C)[C@H]1c1ccccc1 [III-217]
1 to 10 µM | 1 to 10 µM | +++ (≥350) | 100 to 200% |  |  |  |  |  |  | COc1cc(Cl)ccc1CN[C@H]1[C@H](C(C)(C)C)[C@@H](C(=O)O)N(C(=O)C2CCCCC2)[C@H]1c1ccccc1 [II-99]
1 to 10 µM | 1 to 10 µM | +++ (≥350) | 100 to 200% |  |  |  |  |  |  | COc1ccc(C2(C)CCC2)cc1CN[C@H]1[C@H](C(C)(C)C)[C@@H](C(=O)O)N(C(=O)C2CCC2)[C@H]1c1ccccc1C(F)(F)F [Example I-279]
1 to 10 µM | 1 to 10 µM | ++ (≥150 and <350) | < 100% |  |  |  |  |  |  | COc1ccc(C#N)cc1CN[C@@H]1[C@@H](C(C)(C)C)[C@H](C(=O)O)N(C(=O)C2CCCCC2)[C@@H]1c1ccccc1 (racemic) [II-71]
 |  |  |  |  | 1 to 10 µM |  | 1 to 10 µM | +++ (≥350) | > 200% | COc1ccc(C(C)(C)C)cc1CN[C@H]1[C@H](C(C)(C)C)[C@@H](C(=O)O)N(C(=O)[C@@H]2CCCN(C(=O)OC(C)C)C2)[C@H]1c1ccccc1 [Example I-246, (2S,3S,4S,5S)-3-tert-butyl-4-{[(5-tert-butyl-2-methoxyphenyl)methyl]amino}-5-phenyl-1-[(3R)-1-{[(propan-2-yl)oxy]carbonyl}piperidine-3-carbonyl]pyrrolidine-2-carboxylic acid]
 |  |  |  | < 100% | > 10 µM | + (<150) | > 10 µM |  |  | COc1cccc(CN[C@@H]2[C@@H](C(C)(C)C)[C@H](C(=O)O)N(C(=O)C3CCCCC3)[C@@H]2c2ccccc2)c1OC (racemic) [III-13]

From patent publication US20180099931A1 (AbbVie S.à.r.l., priority 2016, published 2018)
